Measured values taken from BindingDB's records for doi:10.7270/Q2668BMS (Burnham Center For Chemical Genomics, 2010).
Values joined by “and” are separate entries in the source; they are usually repeats but may differ in a detail not shown here. Equal values may be shown once.

Molecular target: T1, Amyloid-beta A4 precursor protein-binding family A member 1 (Rattus norvegicus, UniProt O35430)
T1 sequence (O35430 whole entry): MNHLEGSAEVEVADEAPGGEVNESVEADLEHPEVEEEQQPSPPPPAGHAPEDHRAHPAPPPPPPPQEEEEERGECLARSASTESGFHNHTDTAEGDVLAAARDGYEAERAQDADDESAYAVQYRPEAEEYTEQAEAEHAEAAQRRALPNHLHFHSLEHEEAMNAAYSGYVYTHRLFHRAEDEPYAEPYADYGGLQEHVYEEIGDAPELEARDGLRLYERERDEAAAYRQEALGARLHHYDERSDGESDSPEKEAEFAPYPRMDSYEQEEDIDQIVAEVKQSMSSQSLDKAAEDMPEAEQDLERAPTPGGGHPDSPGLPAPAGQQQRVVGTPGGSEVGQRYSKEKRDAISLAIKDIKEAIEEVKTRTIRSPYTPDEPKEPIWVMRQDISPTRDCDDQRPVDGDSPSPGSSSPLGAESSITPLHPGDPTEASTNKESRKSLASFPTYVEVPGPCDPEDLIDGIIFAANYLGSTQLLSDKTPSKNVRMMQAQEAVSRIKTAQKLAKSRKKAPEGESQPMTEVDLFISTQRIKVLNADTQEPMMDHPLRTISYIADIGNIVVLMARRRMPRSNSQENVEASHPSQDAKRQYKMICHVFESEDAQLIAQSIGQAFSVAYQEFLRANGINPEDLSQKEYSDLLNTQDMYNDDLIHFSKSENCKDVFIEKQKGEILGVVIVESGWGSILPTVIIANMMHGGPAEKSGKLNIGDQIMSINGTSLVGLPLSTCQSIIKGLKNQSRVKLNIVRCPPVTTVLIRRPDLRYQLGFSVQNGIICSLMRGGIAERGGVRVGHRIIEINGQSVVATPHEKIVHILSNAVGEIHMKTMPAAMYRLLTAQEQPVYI
Experiment: disruptors of Mint-PDZ/N-type channel peptide interaction – biochemical, HTRF, set 2, SAR follow-up (AID 434980)

| Compound | IC50 |
| --- | --- |
| Cc1ccc(-n2c(O)c3c(c2O)C2(C)C=CC3(C)O2)cc1 | > 56.8 µM |
| CC(=O)Oc1ccc(-n2c(O)c3c(c2O)C2(C)C=CC3(C)O2)cc1 [MLS000107813] | 6.39 µM |
| CC12C=CC(C)(O1)c1c2c(O)n(-c2ccc(F)cc2)c1O [2-(4-fluorophenyl)-4,7-dimethyl-3a,7a-dihydro-octahydro-1H-4,7-epoxyisoindole-1,3-dione] | 8.89 µM |
| CC12C=CC(C)(O1)c1c2c(O)n(-c2ccc3c(c2)OCO3)c1O | > 56.8 µM |
| COC(=O)c1cc(-n2c(O)c3c(c2O)C2(C)C=CC3(C)O2)ccc1Cl [MLS000107828] | > 56.8 µM |
| CCCc1ccc(CC2=C(C(=O)OCC)C(=O)c3ccccc3C2=O)cc1 [MLS000571357] | 5.7 µM |
| CC12C=CC(C)(O1)c1c2c(O)n(-c2ccc(Cl)cc2)c1O | > 56.8 µM |
| CC12C=CC(C)(O1)c1c2c(O)n(-c2ccccc2)c1O [4,7-dimethyl-2-phenyl-3a,7a-dihydro-octahydro-1H-4,7-epoxyisoindole-1,3-dione] | 10.5 µM |
| CC(=O)Oc1ccc(-n2c(O)c3c(c2O)C2C=CC3O2)cc1 [[4-(1,3-dioxo-3a,4,7,7a-tetrahydro-octahydro-1H-4,7-epoxyisoindol-2-yl)phenyl] acetate] | 18.8 µM |
| Cc1cccc(-n2c(O)c3c(c2O)C2(C)C=CC3(C)O2)c1 [4,7-dimethyl-2-(3-methylphenyl)-3a,7a-dihydro-octahydro-1H-4,7-epoxyisoindole-1,3-dione] | 8.93 µM |
| CC(=O)Oc1cccc(-n2c(O)c3c(c2O)C2(C)C=CC3(C)O2)c1 | 9.86 µM and 9.63 µM |
